From US10774039B2, “Cyclopropene amino acids and methods” (United Kingdom Research and Innovation, priority 2014, dated 2020) come the findings set out here.

The subject of assay [1] is PylRS/tRNACUA pair. The experiment in a line: Site-specific incorporation into sfGFP150TAG expressed in E. coli. Format: cell-based, Methanosarcina barkeri. As to conditions: SfGFP gene with amber codon at position 150, E. coli, PylRS/tRNACUA pair. The protocol:
FIG. 2A: The PylRS/RNACUA pair directs efficient, site-specific incorporation of 3 into sfGFP bearing an amber stop codon at position 150.
Expression and purification of sfGFP-3 from E. coli Electrocompetent E. coli DH10B cells were co-transformed with pBK-MbPylRS and psfGFP150TAG PyIT^14, 26. Transformed cells were recovered in S.O.B. (1 mL, supplemented with 0.2% glucose) for 1 h at 37° C. and used to inoculate LB containing 50 μg/mL kanamycin and 25 μg/mL tetracycline (LB-KT). The cells were incubated with shaking overnight at 37° C., 250 r.p.m. 1 mL of overnight culture was used to inoculate 100 mL of LB-KT½, the day culture was then incubated (37° C., 250 r.p.m). At O.D.600˜0.3, the culture was divided equally and supplemented with either 3 (1 mM) or H2O (500 μL) and incubated further (37° C., 250 r.p.m). At O.D.600˜0.6 protein expression was induced by the addition of arabinose (0.2%), after 4 h, the cells were harvested by centrifugation (4000 r.p.m, 20 min) and the pellet frozen until further use.
The frozen bacterial pellet was thawed on ice and resuspended in 2.5 mL lysis buffer (Bugbuster®, Novagen®, 50 μg/mL DNAse 1, Roche inhibitor cocktail and 20 mM imidazole). Cells were incubated (4° C., 30 minutes) then clarified by centrifugation (16000 g, 4° C., 30 minutes). The clarified lysates were transferred to fresh tubes and 100 μL Ni-NTA slurry added. The mixtures was incubated with agitation (4° C., 1 h) and then collected by centrifugation (1000 g, 4° C., 5 min). The beads were resuspended three times in 500 μL wash buffer (10 mM Tris-HCL, 40 mM imidazole, 200 mM NaCl, pH 8) and collected by centrifugation (1000 g, 4° C., 5 min). Finally, the beads were resuspended in 100 μL, elution buffer (10 mM Tris-HCL, 300 mM imidazole, 200 mM NaCl, pH 8), pelleted by centrifugation (1000 g, 4° C., 5 min) and the supernatant collected into fresh tubes. The elution was repeated three times with 100 μL of elution buffer. The purified proteins were analysed by 4-12% SDS-PAGE and LC-MS.

In assay [2] the target is PylRS/tRNACUA pair (Methanosarcina mazei, UniProt Q8PWY1). As to the kind of experiment: Dual luciferase reporter assay on ovary extract of flies fed amino acid. It counts as in vivo, D. melanogaster. The arrangement: expressed in transfected cells; host or cells: transgenic Drosophila melanogaster, ovaries (UAS-PylRS driven by nos-vp16-GAL4). As to conditions: flies fed 10 mM amino acid. The protocol:
Dual luciferase assay on ovary extract from 10 female flies expressing Triple-Rep-L in the presence or absence of 10 mM 1 or 10 mM 3. […] The error bars represent the standard deviation of 3 technical replicates from a single biological replicate. FIG. 10B: Site-specific incorporation of 3 (or 1) into GFP_TAG_mCherry-HA in flies expressing PylRS/PyltRNACUA. The full-length protein resulting from unnatural amino acid incorporation is detected by anti-HA western blot. FIG. 10C: Specific labelling of encoded 3 with tetrazine probes. Flies were fed with no amino acid, amino acid 1 (500 flies) or amino acid 3 (100 flies). […] The full-length protein containing the unnatural amino acid was immunoprecipitated from lysed ovaries with anti-GFP beads. The beads were labelled (4g, 4 μM, 200 μL, PBS, RT, 2 h) washed.
Transgenic lines were created by P element insertion using a Drosophila embryo injection service (BestGene Inc.). Lines were generated using the following plasmids: pFT58 (Ala), pFT60 (Ser), pFT62 (Leu) and pFT63 (Met). nos-Gal4-VP16 (Bloomington 4937) and MS1096-Gal4 (Bloomington 8860) were used as Gal4 drivers. All flies were grown at 25° C. on standard Iberian medium. Flies were fed unnatural amino acids by mixing dried yeast with the appropriate concentration of amino acid (usually 10 mM) diluted in dH2O to make a paste. Ovaries were prepared from females that were grown on Iberian fly food supplemented with a yeast paste with or without the amino acid for a minimum of 48 hours. For proteome labelling experiments transgenic male flies of constructs FT58, FT60, FT62 and FT63 were crossed with nos-vp16-GAL4 virgins to generate FT58/nos-vp16-GAL4, FT60/nos-vp16-GAL4, FT62/nos-vp16-GAL4 and FT63/nos-vp16-GAL4 respectively.
Ovaries from 10 females of Triple Rep-L flies recombined with nos-Gal4-VP16 fed 3, 1 or no amino acid were dissected in 100 μl 1× Passive lysis buffer and processed for luciferase assays as previously described^20.
(In general: In a reporter assay the amount or activity of a reporter protein is the signal.)

PylRS/tRNACUA pair (Methanosarcina mazei, UniProt Q8PWY1), sequence (Q8PWY1 whole entry, the tested form may be a part): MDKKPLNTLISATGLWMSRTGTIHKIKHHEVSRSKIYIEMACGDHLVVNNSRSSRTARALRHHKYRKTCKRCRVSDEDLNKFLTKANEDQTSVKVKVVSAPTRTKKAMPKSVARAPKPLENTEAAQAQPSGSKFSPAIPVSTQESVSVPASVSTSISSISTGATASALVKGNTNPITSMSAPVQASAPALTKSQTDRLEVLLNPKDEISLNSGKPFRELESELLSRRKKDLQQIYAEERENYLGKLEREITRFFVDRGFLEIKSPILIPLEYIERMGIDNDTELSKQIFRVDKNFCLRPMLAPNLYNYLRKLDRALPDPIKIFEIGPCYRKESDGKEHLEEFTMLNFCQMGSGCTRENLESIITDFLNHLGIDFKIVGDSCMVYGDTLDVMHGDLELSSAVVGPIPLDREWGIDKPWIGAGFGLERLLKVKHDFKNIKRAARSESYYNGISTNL

As for `CC(C)(C)OC(=O)NCCCC[C@H](N)C(=O)O` [amino acid 1, N^ε-[(tert-butoxy)carbonyl]-L-lysine, reference compound], the yield of protein in assay [1] is recorded as 4 mg per litre of culture. The “luciferase signal dependent on amino acid addition” value in assay [2] was “strong luciferase signal”.
